Test results published in ChEMBL document CHEMBL1201862, “PubChem BioAssay data set” (2004).
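Five compound concentrations were applied to cells in 96-well plates for 48 hours; endpoints were derived by simple linear interpolation of the resulting dose-response curve. Here, GI50 denotes the concentration required for 50% inhibition of growth.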 Calls of active or inactive are those of the source. Cut-off read from the data, not from the text of the source: active = GI50 up to about 1.1 µM and inactive = higher.

Legend:
Assay in all cases: inhibition of tumour cell growth, NCI panel, 48 h
786-0 = test system: 786-0
CAKI-1 = test system: CAKI-1
HT-29 = test system: HT-29
SK-MEL-5 = test system: SK-MEL-5
UACC-257 = test system: UACC-257
SN12C = test system: SN12C
A549 = test system: A549
SNB-19 = test system: SNB-19
CCRF-CEM = test system: CCRF-CEM
HOP-92 = test system: HOP-92
LOX IMVI = test system: LOX IMVI
M14 = test system: M14
UO-31 = test system: UO-31
SNB-75 = test system: SNB-75
Hs-578T = test system: Hs-578T
OVCAR-8 = test system: OVCAR-8
PC-3 = test system: PC-3
NCI/ADR-RES = test system: NCI/ADR-RES
SK-OV-3 = test system: SK-OV-3
KM12 = test system: KM12
A498 = test system: A498
COLO 205 = test system: COLO 205
TK-10 = test system: TK-10
MDA-N = test system: MDA-N
MDA-MB-231 = test system: MDA-MB-231
U-251 = test system: U-251
OVCAR-5 = test system: OVCAR-5
RPMI-8226 = test system: RPMI-8226
SK-MEL-28 = test system: SK-MEL-28
BT-549 = test system: BT-549
K562 = test system: K562
MOLT-4 = test system: MOLT-4
SF-295 = test system: SF-295
Malme-3M = test system: Malme-3M
DU-145 = test system: DU-145
MCF7 = test system: MCF7
NCI-H522 = test system: NCI-H522
SF-539 = test system: SF-539
OVCAR-4 = test system: OVCAR-4
NCI-H226 = test system: NCI-H226
NCI-H23 = test system: NCI-H23
SF-268 = test system: SF-268
OVCAR-3 = test system: OVCAR-3
MDA-MB-435 = test system: MDA-MB-435
HL-60 = test system: HL-60
HCT-116 = test system: HCT-116
UACC-62 = test system: UACC-62
HOP-62 = test system: HOP-62
HCT-15 = test system: HCT-15
T47D = test system: T47D
SW-620 = test system: SW-620
EKVX = test system: EKVX
SR = test system: SR
IGROV-1 = test system: IGROV-1
SK-MEL-2 = test system: SK-MEL-2
NCI-H460 = test system: NCI-H460
HCC 2998 = test system: HCC 2998
RXF 393 = test system: RXF 393
ACHN = test system: ACHN

Measured: GI50

Cn1c2c(c3ccccc3c1=O)C(=O)c1ccccc1-2
9.79 µM: HCT-15
inactive: 786-0 17.9 µM | CAKI-1 > 100 µM | HT-29 97.5 µM | SK-MEL-5 29.9 µM | UACC-257 > 100 µM | SN12C 80.2 µM | A549 > 100 µM | SNB-19 44.2 µM | CCRF-CEM > 100 µM | HOP-92 > 100 µM | LOX IMVI 27.2 µM | M14 > 100 µM | UO-31 21.9 µM | SNB-75 77.6 µM | Hs-578T > 100 µM | OVCAR-8 32.9 µM | PC-3 > 100 µM | NCI/ADR-RES 51.2 µM | SK-OV-3 81.7 µM | KM12 > 100 µM | A498 74.1 µM | COLO 205 20 µM | TK-10 21.4 µM | MDA-N > 100 µM | MDA-MB-231 43.4 µM | U-251 35.3 µM | OVCAR-5 > 100 µM | RPMI-8226 > 100 µM | SK-MEL-28 > 100 µM | BT-549 50.9 µM | K562 > 100 µM | MOLT-4 3.07 µM | SF-295 > 100 µM | Malme-3M > 100 µM | DU-145 > 100 µM | MCF7 72.9 µM | NCI-H522 11.7 µM | SF-539 19.7 µM | OVCAR-4 29.9 µM | NCI-H226 63.8 µM | NCI-H23 30.8 µM | SF-268 51.8 µM | OVCAR-3 76.4 µM | MDA-MB-435 > 100 µM | HL-60 6.93 µM | HCT-116 15.5 µM | UACC-62 59 µM | HOP-62 18.9 µM | T47D > 100 µM | SW-620 > 100 µM | EKVX 20.6 µM | SR 5.2 µM | IGROV-1 > 100 µM | SK-MEL-2 > 100 µM

Cc1ccc(S(=O)(=O)NC(=O)OC23COCN2COC3)cc1
> 100 µM: HCT-15
inactive: 786-0 > 100 µM | CAKI-1 > 100 µM | NCI-H460 > 100 µM | HT-29 > 100 µM | SK-MEL-5 > 100 µM | UACC-257 > 100 µM | SN12C > 100 µM | A549 > 100 µM | SNB-19 > 100 µM | HOP-92 > 100 µM | LOX IMVI > 100 µM | M14 > 100 µM | UO-31 > 100 µM | HCC 2998 > 100 µM | SNB-75 > 100 µM | Hs-578T > 100 µM | OVCAR-8 > 100 µM | PC-3 > 100 µM | NCI/ADR-RES > 100 µM | SK-OV-3 > 100 µM | KM12 > 100 µM | A498 > 100 µM | COLO 205 > 100 µM | TK-10 > 100 µM | MDA-N > 100 µM | MDA-MB-231 > 100 µM | U-251 > 100 µM | OVCAR-5 > 100 µM | RPMI-8226 29.5 µM | SK-MEL-28 > 100 µM | BT-549 > 100 µM | K562 > 100 µM | SF-295 > 100 µM | Malme-3M > 100 µM | DU-145 > 100 µM | MCF7 91 µM | NCI-H522 > 100 µM | SF-539 > 100 µM | OVCAR-4 > 100 µM | NCI-H226 > 100 µM | NCI-H23 > 100 µM | SF-268 > 100 µM | OVCAR-3 > 100 µM | RXF 393 > 100 µM | MDA-MB-435 > 100 µM | HCT-116 > 100 µM | UACC-62 > 100 µM | HOP-62 > 100 µM | ACHN > 100 µM | T47D 69.5 µM | SW-620 81.7 µM | EKVX > 100 µM | SR 31.6 µM | IGROV-1 > 100 µM | SK-MEL-2 > 100 µM

c1cc2c3c(c1)[C@@H]1O[C@@H]1c1cccc(c1-3)[C@@H]1O[C@H]21
17.5 µM: HCT-15
inactive: 786-0 20 µM | CAKI-1 14.8 µM | HT-29 17.7 µM | SK-MEL-5 17.9 µM | UACC-257 18.2 µM | SN12C 19.7 µM | A549 31.6 µM | SNB-19 53.3 µM | HOP-92 20.8 µM | LOX IMVI 3.08 µM | M14 15 µM | UO-31 14.6 µM | SNB-75 20.9 µM | Hs-578T 17.6 µM | OVCAR-8 17.9 µM | PC-3 22.9 µM | NCI/ADR-RES 22.4 µM | SK-OV-3 > 100 µM | KM12 17.1 µM | A498 63.8 µM | COLO 205 18.1 µM | TK-10 32.2 µM | MDA-N 17.9 µM | MDA-MB-231 19.1 µM | U-251 16.9 µM | OVCAR-5 16.5 µM | SK-MEL-28 15.7 µM | BT-549 24 µM | K562 17.7 µM | MOLT-4 35 µM | SF-295 23.6 µM | Malme-3M 15.4 µM | DU-145 18 µM | MCF7 10.1 µM | NCI-H522 14.8 µM | OVCAR-4 19.8 µM | NCI-H226 > 100 µM | NCI-H23 16.4 µM | SF-268 16.3 µM | RXF 393 2.93 µM | MDA-MB-435 14.3 µM | HCT-116 15 µM | UACC-62 16.5 µM | HOP-62 27.7 µM | ACHN 18.7 µM | T47D 20.5 µM | EKVX 16.6 µM | SR 49.5 µM | SK-MEL-2 17.4 µM
